Each structure is given as a SMILES string.

One experiment relates to THP1-Dual™ reporter cells. The experiment is described as follows: THP1-Dual cell reporter assay (IRF-Lucia luciferase reporter). It counts as cell-based, human. Conditions: ADCs: drug linker conjugated to a targeted mAb, 48 h. The procedure: THP1-Dual™ Cell Reporter Assay
Potency of compounds and ADCs was evaluated using the THP1-Dual™ cells (InvivoGen PN: thpd-nfis [also referred to as THP1 dual reporter cells]), which contain an IRF-Lucia luciferase reporter. Cells were cultured in RPMI-1640 (Gibco) with 10% heat-inactivated fetal bovine serum, Pen-Strep (100 U/mL-100 μg/mL, Gibco), HEPES (10 mM, Gibco)), sodium pyruvate (1 mM, Gibco), MEM non-essential amino acids (1×, Gibco), GlutaMAX (1×, Gibco), and beta-mercaptoethanol (55 μM, Gibco). Cells were plated in a 96-well flat bottom tissue culture-treated clear polystyrene plate (Corning Costar #3596) at ˜100,000 cells per well in 200 μL with the indicated concentration of the compound or ADC. The supernatant was harvested at 24 hours (compounds) or 48 hours (ADC) post plating for the reporter assay, or as indicated. To measure Lucia reporter signal, 10 μL of the supernatant was combined with 40 μL of QUANTI-Luc™ Luminescence assay reagent (Invivogen PN: rep-qlc1) in a 96-well clear flat bottom tissue culture-treated black polystyrene plate (Corning Costar #3603) and read on a Perkin Elmer Envision plate reader.
STING agonist compounds were assessed for their ability to activate THP1-Dual™ reporter cells, a human monocytic cell line in which type I interferon (IRF) signaling can be monitored via a secreted luciferase reporter protein (Lucia). THP1-Dual™ cells were treated with increasing concentrations of the agonists for 24h, then supernatants were harvested and the Lucia reporter signal was quantified using QUANTI-Luc™ Luminescence assay reagent.
On the technique in general: In a reporter assay the amount or activity of a reporter protein is the signal.
Regarding `CCn1nc(C)cc1C(=O)Nc1nc2cc(C(N)=O)cc(OC)c2n1C/C=C/Cn1c(NC(=O)c2cc(C)nn2CC)nc2cc(C(N)=O)cc(OCCCN(C)C(=O)[C@H](CCC(=O)OC)NC(=O)CCN3C(=O)C=CC3=O)c21` [Compound 123], the EC50 – broadly, the concentration giving half of the maximal effect – was 1.6 ng/mL.

Consider `CCn1nc(C)cc1C(=O)Nc1nc2cc(C(N)=O)cc(OC)c2n1C/C=C/Cn1c(NC(=O)c2cc(C)nn2CC)nc2cc(C(N)=O)cc(OCCC[N+](C)(C)Cc3ccc(O[C@@H]4O[C@H](C(=O)O)[C@@H](O)[C@H](O)[C@H]4O)cc3NC(=O)CCNC(=O)CCN3C(=O)C=CC3=O)c21.O=C([O-])C(F)(F)F` [Compound 134], for which the concentration for a half-maximal effect (EC50) was found to be 10.3 ng/mL. As to `CCn1nc(C)cc1C(=O)Nc1nc2cc(S(N)(=O)=O)ccc2n1C/C=C/Cn1c(NC(=O)c2cc(C)nn2CC)nc2cc(C(N)=O)cc(OCCC3CN(C(=O)CCN4C(=O)C=CC4=O)C3)c21` [Compound 144, (E)-7-(2-(1-(3-(2,5-dioxo-2,5-dihydro-1H-pyrrol-1-yl)propanoyl)azetidin-3-yl)ethoxy)-2-(1-ethyl-3-methyl-1H-pyrazole-5-carboxamido)-1-(4-(2-(1-ethyl-3-methyl-1H-pyrazole-5-carboxamido)-5-sulfamoyl-1H-benzo[d]imidazol-1-yl)but-2-en-1-yl)-1H-benzo[d]imidazole-5-carboxamide], the “EC50 (ng/mL)” value is given as >10,000 ng/mL. For the compound `CCn1nc(C)cc1C(=O)Nc1nc2cc(C(N)=O)cc(OC)c2n1C/C=C/Cn1c(NC(=O)c2cc(C)nn2CC)nc2cc(C(N)=O)cc(OCCCN(C)C(=O)[C@@H](NC(=O)CCN3C(=O)C=CC3=O)[C@@H](C)OC)c21` [Compound 125], the “EC50” value is given as 1.4 ng/mL. Take `CCn1nc(C)cc1C(=O)Nc1nc2cc(C(N)=O)cc(OC)c2n1C/C=C/Cn1c(NC(=O)c2cc(C)nn2CC)nc2cc(C(N)=O)cc(OCCCN(C)C(=O)[C@H](CC(=O)O)NC(=O)CCN3C(=O)C=CC3=O)c21` [Compound 17, (S,E)-4-((3-((5-carbamoyl-1-(4-(5-carbamoyl-2-(1-ethyl-3-methyl-1H-pyrazole-5-carboxamido)-7-methoxy-1H-benzo[d]imidazol-1-yl)but-2-en-1-yl)-2-(1-ethyl-3-methyl1H-pyrazole-5-carboxamido)-1H-benzo[d]imidazol-7-yl)oxy)propyl)(methyl)amino)-3-(3-(2,5-dioxo-2,5-dihydro-1H-pyrrol-1-yl)propanamido)-4-oxobutanoic acid]: the half-maximal effective concentration (EC50) turned out to be 2.2 ng/mL.

With `CCc1nc(C)oc1C(=O)Nc1nc2cc(C(N)=O)cc(OCCCN(C)C(=O)CCN3C(=O)C=CC3=O)c2n1C/C=C/Cn1c(NC(=O)c2cc(C)nn2CC)nc2cc(C(N)=O)cc(OC)c21` [Compound 112], the “EC50” value is reported as 2 ng/mL.

On to `CCn1nc(C)cc1C(=O)Nc1nc2cc(C(N)=O)cc(OC)c2n1C/C=C/Cn1c(NC(=O)c2ccnn2CC)nc2cc(C(N)=O)cc(OCCCN(C)C(=O)CCN3C(=O)C=CC3=O)c21` [Compound 108], for which the “EC50” value is 63.5 ng/mL. The same measure, in the same setting: to `CCn1nc(C)cc1C(=O)Nc1nc2cc(C(N)=O)cc(OC)c2n1C/C=C/Cn1c(NC(=O)c2cc(C)nn2CC)nc2cc(C(N)=O)cc(OCCC3CN(C(=O)CCN4C(=O)C=CC4=O)C3)c21` [Compound 26, (E)-1-(4-(5-carbamoyl-2-(1-ethyl-3-methyl-1H-pyrazole-5-carboxamido)-7-methoxy-1H-benzo[d]imidazol-1-yl)but-2-en-1-yl)-7-(2-(1-(3-(2,5-dioxo-2,5-dihydro-1H-pyrrol-1-yl)propanoyl)azetidin-3-yl)ethoxy)-2-(1-ethyl-3-methyl-1H-pyrazole-5-carboxamido)-1H-benzo[d]imidazole-5-carboxamide] belongs 14.4 ng/mL. Regarding `CCn1nc(C)cc1C(=O)Nc1nc2cc(S(N)(=O)=O)ccc2n1C/C=C/Cn1c(NC(=O)c2cc(C)nn2CC)nc2cc(C(N)=O)cc(OCCCOC3CN(C(=O)CCN4C(=O)C=CC4=O)C3)c21` [Compound 146, (E)-7-(3-((1-(3-(2,5-dioxo-2,5-dihydro-1H-pyrrol-1-yl)propanoyl)azetidin-3-yl)oxy)propoxy)-2-(1-ethyl-3-methyl-1H-pyrazole-5-carboxamido)-1-(4-(2-(1-ethyl-3-methyl-1H-pyrazole-5-carboxamido)-5-sulfamoyl-1H-benzo[d]imidazol-1-yl)but-2-en-1-yl)-1H-benzo[d]imidazole-5-carboxamide], the “EC50 (ng/mL)” value was >10,000 ng/mL.

The same experiment, now with this note: Homo sapiens, THP1-Dual, 24 h, free compounds, 24 h, Lucia reporter signal; read-out: EC50.
Regarding `CCn1nc(C)cc1C(=O)Nc1nc2cc(C(N)=O)cc(OC)c2n1C/C=C/Cn1c(NC(=O)c2cc(C)nn2CC)nc2cc(C(N)=O)cc(OCCCN(C)C(=O)CCN3C(=O)C=CC3=O)c21` [Compound 12, (E)-1-(4-(5-carbamoyl-2-(1-ethyl-3-methyl-1H-pyrazole-5-carboxamido)-7-methoxy-1H-benzo[d]imidazol-1-yl)but-2-en-1-yl)-7-(3-(3-(2,5-dioxo-2,5-dihydro-1H-pyrrol-1-yl)-N-methylpropanamido)propoxy)-2-(1-ethyl-3-methyl-1H-pyrazole-5-carboxamido)-1H-benzo[d]imidazole-5-carboxamide], the EC50 was 37 nM.

Staying with this experiment, now noted: Homo sapiens, THP1-Dual; free compounds, 24 h, Lucia reporter signal; read-out: EC50.
Consider `COc1cc(C(N)=O)cc2nc(NC(=O)c3cc(C)sn3)n(C/C=C/Cn3c(NC(=O)c4cc(C)sn4)nc4cc(C(N)=O)cc(O)c43)c12` [Compound 40], for which the EC50 was over 10000 nM. Regarding `COc1cc(C(N)=O)cc2nc(NC(=O)Cn3cccn3)n(C/C=C/Cn3c(NC(=O)Cn4cccn4)nc4cc(C(N)=O)cc(O)c43)c12` [Compound 47], the EC50 was over 10000 nM. With `COc1cc(C(N)=O)cc2nc(NC(=O)c3ccno3)n(C/C=C/Cn3c(NC(=O)c4ccno4)nc4cc(C(N)=O)cc(O)c43)c12` [Compound 59], the half-maximal effective concentration (EC50) is over 10000 nM. With `CCn1nc(C)cc1C(=O)Nc1nc2cc(C(N)=O)cc(OC)c2n1C/C=C/Cn1c(NC(=O)c2cc(C)nn2CC)nc2cc(C(N)=O)cc(OCCCN(C)C(=O)[C@@H](N)CCC(=O)OC)c21` [Compound 117], the concentration giving a half-maximal response (EC50) was 14.6 nM. Take `CCn1ncc(C)c1C(=O)Nc1nc2cc(C(N)=O)cc(O)c2n1C/C=C/Cn1c(NC(=O)c2c(C)cnn2CC)nc2cc(C(N)=O)cc(OC)c21` [Compound 31]: the EC50 came out at 176 nM. For the compound `CCn1nc(C)cc1C(=O)Nc1nc2cc(C(N)=O)cc(OC)c2n1C/C=C/Cn1c(NC(=O)c2c(C)cnn2C)nc2cc(C(N)=O)cc(OCCCNC)c21` [Compound 93], the EC50 is over 10000 nM. Same read-out and setting: to `CCn1nc(C)cc1C(=O)Nc1nc2cc(C(N)=O)cc(OC)c2n1C/C=C/Cn1c(NC(=O)c2cc(C)nn2C)nc2cc(C(N)=O)cc(OCCCOC3CN(C(=O)CCN4C(=O)CC(SC[C@H](N)C(=O)O)C4=O)C3)c21` (stereo partly drawn) [Compound 155, S-(1-(3-(3-(3-((5-carbamoyl-1-((E)-4-(5-carbamoyl-2-(1-ethyl-3-methyl-1H-pyrazole-5-carboxamido)-7-methoxy-1H-benzo[d]imidazol-1-yl)but-2-en-1-yl)-2-(1,3-dimethyl-1H-pyrazole-5-carboxamido)-1H-benzo[d]imidazol-7-yl)oxy)propoxy)azetidin-1-yl)-3-oxopropyl)-2,5-dioxopyrrolidin-3-yl)-L-cysteine] belongs 94 nM; to `CCn1nc(C)cc1C(=O)Nc1nc2cc(C(N)=O)cc(OC)c2n1C/C=C/Cn1c(NC(=O)c2cc(C)nn2CC)nc2cc(C(N)=O)cc(OCCCN(C)C(=O)[C@H](CC(=O)O)NC(=O)CCN3C(=O)C=CC3=O)c21` [Compound 17, (S,E)-4-((3-((5-carbamoyl-1-(4-(5-carbamoyl-2-(1-ethyl-3-methyl-1H-pyrazole-5-carboxamido)-7-methoxy-1H-benzo[d]imidazol-1-yl)but-2-en-1-yl)-2-(1-ethyl-3-methyl1H-pyrazole-5-carboxamido)-1H-benzo[d]imidazol-7-yl)oxy)propyl)(methyl)amino)-3-(3-(2,5-dioxo-2,5-dihydro-1H-pyrrol-1-yl)propanamido)-4-oxobutanoic acid], 66.3 nM. Same read-out and setting: with `CCc1nc(C)sc1C(=O)Nc1nc2cc(C(N)=O)cc(OCCCNC)c2n1C/C=C/Cn1c(NC(=O)c2cc(C)nn2CC)nc2cc(C(N)=O)cc(OC)c21` [Compound 94] the figure was 133 nM. On to `CCn1nc(C)cc1C(=O)Nc1nc2cc(C(=O)OC)cc(O)c2n1C/C=C/Cn1c(NC(=O)c2cc(C)nn2CC)nc2cc(C(=O)OC)cc(OC)c21` [Compound 62, methyl (E)-2-(1-ethyl-3-methyl-1H-pyrazole-5-carboxamido)-1-(4-(2-(1-ethyl-3-methyl-1H-pyrazole-5-carboxamido)-7-hydroxy-5-(methoxycarbonyl)-1H-benzo[d]imidazol-1-yl)but-2-en-1-yl)-7-methoxy-1H-benzo[d]imidazole-5-carboxylate], for which the EC50 was over 10000 nM. Turning to `CCc1nc(C)oc1C(=O)Nc1nc2cc(C(N)=O)cc(OCCC3CNC3)c2n1C/C=C/Cn1c(NC(=O)c2cc(C)nn2CC)nc2cc(C(N)=O)cc(OC)c21` [Compound 141, (E)-N-(7-(2-(azetidin-3-yl)ethoxy)-5-carbamoyl-1-(4-(5-carbamoyl-2-(1-ethyl-3-methyl-1H-pyrazole-5-carboxamido)-7-methoxy-1H-benzo[d]imidazol-1-yl)but-2-en-1-yl)-1H-benzo[d]imidazol-2-yl)-4-ethyl-2-methyloxazole-5-carboxamide], the 50% effective concentration (EC50) turned out to be 159 nM. Still for that read-out and setting: to `COc1cc(C(N)=O)cc2nc(NC(=O)c3nc(C)cs3)n(C/C=C/Cn3c(NC(=O)c4nc(C)cs4)nc4cc(C(N)=O)cc(O)c43)c12` [Compound 38] belongs over 10000 nM. Same read-out and setting: to `CCn1nc(C)cc1C(=O)Nc1nc2cc(S(N)(=O)=O)ccc2n1C/C=C/Cn1c(NC(=O)c2cc(C)nn2CC)nc2cc(C(N)=O)cc(OCCCN(C)C(=O)CCN3C(=O)CC(SC[C@H](N)C(=O)O)C3=O)c21` (stereo partly drawn) [Compound 28, S-(1-(3-((3-((5-carbamoyl-2-(1-ethyl-3-methyl-1H-pyrazole-5-carboxamido)-1-((E)-4-(2-(1-ethyl-3-methyl-1H-pyrazole-5-carboxamido)-5-sulfamoyl-1H-benzo[d]imidazol-1-yl)but-2-en-1-yl)-1H-benzo[d]imidazol-7-yl)oxy)propyl)(methyl)amino)-3-oxopropyl)-2,5-dioxopyrrolidin-3-yl)-L-cysteine] belongs 954 nM.

(Values after patent US20240123079A1 (Seagen Inc., priority 2021, published 2024).)
